Test results: US11173143B2, “Composition for decreasing serum uric acid level” (ASAHI GROUP HOLDINGS, LTD., priority 2017, dated 2021)

Test system: serum uric acid
Experiment: Serum uric acid level after 8 weeks of daily intake in subjects with hyperuricemia
Assay type: in vivo, human
Settings: for Serum uric acid level, After 8 weeks: daily intake
Method: Tests were conducted with subjects with hyperuricemia having high serum uric acid levels (7.1 mg/dl or higher) after their written informed consents were obtained. […] Their serum uric acid levels were measured before the intake and after 8 weeks of the intake. A sign test was used as the test of significance.

## NCC(=O)O [Gly, glycine]
Average of the group (n=4)
  Amount of change: -0.13 mg/dL
  Serum uric acid level, Before start of intake: 7.73 mg/dL
  Serum uric acid level, After 8 weeks: 7.60 mg/dL
Subject A
  Amount of change: 0.4 mg/dL
  Serum uric acid level, Before start of intake: 8.9 mg/dL
  Serum uric acid level, After 8 weeks: 9.3 mg/dL
Subject B
  Amount of change: 0.0 mg/dL
  Serum uric acid level, Before start of intake: 7.8 mg/dL
  Serum uric acid level, After 8 weeks: 7.8 mg/dL
Subject C
  Amount of change: -0.5 mg/dL
  Serum uric acid level, Before start of intake: 7.1 mg/dL
  Serum uric acid level, After 8 weeks: 6.6 mg/dL
Subject D
  Amount of change: -0.4 mg/dL
  Serum uric acid level, Before start of intake: 7.1 mg/dL
  Serum uric acid level, After 8 weeks: 6.7 mg/dL
Subjects with hyperuricemia
  Change of serum uric acid levels after 8 weeks of continuous intake (in words): slightly decreased after 8 weeks of continuous intake, but the decreases were not significant
